The results in this text go back to paper PMC4635624, “In vitro and in vivo single-agent efficacy of checkpoint kinase inhibition in acute lymphoblastic leukemia” (Journal of Hematology & Oncology, 2015).

Entries after “also recorded” stand apart in the source; their conditions may differ.

In data set [1] the test system is RPMI-8402, BV-173, and SUP-B15 cell lines. Description: Cell cycle analysis (propidium iodide). It is filed as cell-based, human. The settings on record: increasing concentrations, 24 h; concomitant increment of cell debris. The method, then:
(§1) The effect of the inhibition of Chk1 pathway on cell cycle progression was evaluated in RPMI-8402, BV-173, SUP-B15, and NALM-6 cell lines. Cells were incubated with increasing concentrations of PF-00477736 for 6 and 24 h and then stained with propidium iodide to quantify the DNA amount.
(§2) In order to evaluate the effect of PF-00477736 on cell cycle progression, NALM-6, SUPB-15, RPMI-8402, and BV-173 cell lines were seeded in a 24-well plate at 500,000 cell/1 ml with increasing concentrations of PF-00477736 (0.1, 0.5, and 1 μM for NALM-6 and SUP-B15; 0.05, 0.1, and 0.2 μM for RPMI-8402 and BV-173). After 6 and 24 h, cells were harvested and fixed overnight using ethanol at 70 %. Then, cells were stained using PI/RNase Staining Buffer according to the manufacturer’s instruction (BD Pharmingen), and the cell cycle profile was detected using FACSCanto II instrument. The percentage of the different cell cycle phases was performed using the DNA cell-cycle analysis software for flow cytometry data, ModFit LT (Verity).

Another data set concerns NALM-6 cell line. Description: Cell cycle analysis (propidium iodide). The note with it: 0.1, 0.5, 1 μM, 24 h; reduced percentage of cells in G1 phase. It is filed as cell-based, human. The method, then:
as §1, §2

In data set [2] the test system is mice transplanted with T-ALL (ENU-induced murine leukemia). Description: In vivo efficacy in mice transplanted with T-ALL. The method, then:
Leukemic mice were generated by the usage of the tumorigenic agent N-ethyl-N-nitrosourea (ENU). […] Leukemic blasts coming from the spleen of leukemic animals were transplanted into C57BL/6Ly5.1-recipient mice. Three days after transplantation, a time sufficient for leukemic blasts to home the bone marrow of the host, we started to treat the animals.
Experiments involving mice were performed in agreement with Italian guidelines and after the approval of the Institutional Review Board of the European Institute of Oncology. Leukemic mice were generated by a single administration of the tumorigenic agent N-ethyl-N-nitrosourea (Sigma, 50 mg/kg intraperitoneally). Spleen cells from leukemic C57BL6/Ly5.2 mice were injected intravenously (2 × 10^6 cells/mouse) into non-irradiated, recipient C57BL6/Ly5.1 mice. PF-0077736 was administered intraperitoneally starting from day 3 after the transplant of leukemic cells. Mice received doses of PF-0077736 (40 mg/kg each dose) every 3 days for four treatments (q3dx4). Kaplan-Meyer rank test was used to compare the survival rate between treated and control mice.

Data set [3] has as its system Chk1 pathway in normal bone marrow mononuclear cells. Description: Western blot analysis in normal cells. The settings on record: in contrast to leukemia cells. Format: cell-based, human.

`Cn1cc(-c2[nH]c3cc(NC(=O)[C@H](N)C4CCCCC4)cc4c3c2C=NNC4=O)cn1` [PF-00477736]: the cell cycle profile entry in data set [1] was “progressive reduction of the number of cells in S and G2/M phase”; in the data set on NALM-6 cell line, “progressively increased the percentage of cells in G2/M phase”. For the same molecule, the “overall survival vs vehicle” value in data set [2] (40 mg/kg intraperitoneally q3dx4, five treated vs seven control mice, p value =0.0009, listed as PF-0477736) is listed as “significantly increases the overall survival; also recorded: increases the survival of treated mice”. Moreover, the “survival of treated animals post transplantation” value in data set [2] (40 mg/kg intraperitoneally q3dx4 from day 3 after transplant, five mice, controls (PBS) die all at day 17) is “up to 59 days”. Further, the “toxicity for the animals” value in data set [2] (40 mg/kg, q3dx4 schedule, intraperitoneally) is reported as “seems not to be toxic”. The “phosphorylation of Chk1 (Ser345), Cdc25c (Ser216), Cdc2 (Tyr 15) and phospho-H2A.X” value in data set [3] is “did not induce protein phosphorylation changes”.
